Laboratory results reported in patent publication US20240408139A1, “ENGINEERED CYTOKINE RECEPTORS FOR TUNABLE ADOPTIVE CELL THERAPY” (Dana-Farber Cancer Institute, Inc., priority 2021, published 2024).

Key:
[1] = system: CD8+ T cells comprising anti-fluorescein CAR; experiment: Stimulation of anti-fluorescein CAR T cells by plate-bound or free FITC conjugate; IL-2, IFN-gamma and CD69 by flow cytometry; format: cell-based
Experimental: T cells comprising a nucleic acid encoding anti-fluorescein CAR were stimulated on FITC-conjugated-antibody-coated normal (Normal) or high affinity (High affinity) plates or antibody-FITC solution (Free) with increasing doses of FITC (0, 0.1, 1, 10, and 100 μg/mL) in the presence or absence of CD3/CD28 co-stimulation. Expression of IL-2, IFN-gamma and CD69 in CD8^+ T cells were assessed by flow cytometry.

CD4+ T cells = experiment: Memory markers on CD4+ T cells expressing cytokine receptor switches, stimulated on FITC-conjugated-BSA-coated plate, flow cytometry; format: cell-based, human; details: with CD3/CD28-costimulation, up to 2 weeks, FIG. 3A
Experimental: (§1) T cells comprising nucleic acids encoding cytokine receptor switches were stimulated on FITC-conjugated-BSA-coated plate (FIG. 2) with increasing dose of FITC (0, 0.1, 1, 10, 100, and 1000 μg/mL) in the presence or absence of CD3/CD28 co-stimulation for up to 2 weeks. The effector memory (CD45RA^− CCR7^−), central memory (CD45RA^−, CCR7 ^+), and activation (CD69) markers on CD4^+ and CD8^+ T cells were assessed by flow cytometry.

CD8+ T cells = experiment: Memory markers on CD8+ T cells expressing cytokine receptor switches, stimulated on FITC-conjugated-BSA-coated plate, flow cytometry; format: cell-based, human; details: with CD3/CD28-costimulation
Experimental: as §1

BSA-FITC: fluorescein isothiocyanate (FITC) conjugated to bovine serum albumin (BSA)
stimulation of fluorescein-specific BAT-CAR-T cells ([1]; bound on high-affinity plate, FIGS. 5A-5C): efficiently stimulated

fluorescein isothiocyanate [FITC]
expression of IL-2 in CAR T cells ([1]; FITC-dose-dependent, 0-100 μg/mL, FIG. 5A): increased | expression of IFN-gamma in CAR T cells ([1]; FITC-dose-dependent, 0-100 μg/mL, FIG. 5B): increased | expression of CD69 in CAR T cells ([1]; FITC-dose-dependent, 0-100 μg/mL, FIG. 5C): increased

B1: IL2RA-cytokine receptor switch: IL2RA signal peptide, anti-fluorescein scFv, CD8 hinge, IL2RA transmembrane and intracellular domains; SEQ ID NO: 59 (protein)
chain: MDSYLLMWGLLTFIMVPGCQADVVMTQTPLSLPVSLGDQASISCRSSQSLVHSNGNTYLRWYLQKPGQSPKVLIYKVSNRVSGVPDRFSGSGSGTDFTLKINRVEAEDLGVYFCSQSTHVPWTFGGGTKLEIKSSADDAKKDAAKKDDAKKDDAKKDGGVKLDETGGGLVQPGGAMKLSCVTSGFTFGHYWMNWVRQSPEKGLEWVAQFRNKPYNYETYYSDSVKGRFTISRDDSKSSVYLQMNNLRVEDTGIYYCTGASYGMEYLGQGTSVTVSTTTPAPRPPTPAPTIASQPLSLRPEACRPAAGGAVHTRGLDFACDVAVAGCVFLLISVLLLSGLTWQRRQRKSRRTI
effector memory markers (CD45RA- CCR7-) on CD4+ T cells (CD4+ T cells): increased | central memory markers (CD45RA-, CCR7+) on CD8+ T cells (CD8+ T cells; FIG. 3B): increased | effector memory markers (CD45RA- CCR7-) on CD8+ T cells (CD8+ T cells; FITC-BSA-coated plate, up to 2 weeks, FIG. 3A): increased
